Test results as given in ChEMBL document CHEMBL4342525, “Synthesis and Biochemical Evaluation of Noncyclic Nucleotide Exchange Proteins Directly Activated by cAMP 1 (EPAC1) Regulators” (J Med Chem, 2020).
Active and inactive are the calls of the source. The calls are words filed in the database; no cut-off is given here.

Legend:
[1] = Binding affinity to GST-tagged recombinant EPAC1 delta-DEP mutant (149 to 881 residues) (unknown origin) expressed in Escherichia coli BL21 Star (DE3) incubated for 4 hrs by 8-NBD-cAMP competition binding assay; set-up: species or system Homo sapiens
[2] = molecular target: T1, Rap guanine nucleotide exchange factor 3 (Homo sapiens) (UniProt O95398); experiment: Activity at EPAC1 in HUVEC assessed as promotion of IL-6-promoted signaling by measuring increased pAKT protein levels at 100 uM pre-incubated for 30 mins before IL6 and sIL6Ralpha stimulation for 5 hrs by Western blotting analysis; format: cell-based
T1 sequence (whole entry): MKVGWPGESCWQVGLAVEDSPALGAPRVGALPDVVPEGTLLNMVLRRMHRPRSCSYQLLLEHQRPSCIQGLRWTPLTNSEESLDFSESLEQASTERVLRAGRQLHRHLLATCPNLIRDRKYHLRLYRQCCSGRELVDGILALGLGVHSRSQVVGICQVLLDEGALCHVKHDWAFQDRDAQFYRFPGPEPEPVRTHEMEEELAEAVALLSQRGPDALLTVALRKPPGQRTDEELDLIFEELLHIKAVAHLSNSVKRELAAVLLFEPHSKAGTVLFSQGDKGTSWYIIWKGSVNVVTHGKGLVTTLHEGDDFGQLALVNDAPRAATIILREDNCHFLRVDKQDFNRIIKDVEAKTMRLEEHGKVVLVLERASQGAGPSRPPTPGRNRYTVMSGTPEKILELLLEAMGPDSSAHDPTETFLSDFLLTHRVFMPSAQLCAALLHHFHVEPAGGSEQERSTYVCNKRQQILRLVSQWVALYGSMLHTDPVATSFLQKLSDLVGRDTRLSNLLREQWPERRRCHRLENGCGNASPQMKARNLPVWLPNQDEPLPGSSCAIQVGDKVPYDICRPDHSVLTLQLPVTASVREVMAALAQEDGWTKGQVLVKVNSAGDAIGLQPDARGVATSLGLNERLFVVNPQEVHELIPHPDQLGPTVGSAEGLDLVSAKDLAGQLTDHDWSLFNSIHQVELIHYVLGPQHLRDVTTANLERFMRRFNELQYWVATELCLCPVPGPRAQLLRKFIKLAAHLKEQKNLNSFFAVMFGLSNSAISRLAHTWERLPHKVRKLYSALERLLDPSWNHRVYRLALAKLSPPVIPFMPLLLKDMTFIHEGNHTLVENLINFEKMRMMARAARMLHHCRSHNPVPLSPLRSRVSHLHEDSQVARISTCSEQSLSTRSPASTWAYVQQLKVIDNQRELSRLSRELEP

[3] = molecular target: T1, Rap guanine nucleotide exchange factor 3 (Homo sapiens); experiment: Binding affinity to GST-tagged recombinant EPAC1 CNBD (169 to 318 residues) (unknown origin) expressed in Escherichia coli BL21 Star (DE3) assessed as relative fluorescence intensity incubated for 4 hrs by 8-NBD-cAMP competition binding assay relative to control; set-up: concentration or dose not given beside the values
[4] = molecular target: T1, Rap guanine nucleotide exchange factor 3 (Homo sapiens); experiment: Activation of EPAC1 in HUVEC assessed as reduction in IL-6-promoted signaling by measuring pSTAT3 protein levels at 100 uM pre-incubated for 30 mins before IL6 and sIL6Ralpha stimulation for 5 hrs by Western blotting analysis; format: cell-based
[5] = molecular target: T2, Rap guanine nucleotide exchange factor 3 (Homo sapiens, UniProt O95398); experiment: Binding affinity to GST-tagged recombinant EPAC1 CNBD (169 to 318 residues) (unknown origin) expressed in Escherichia coli BL21 Star (DE3) incubated for 4 hrs by 8-NBD-cAMP competition binding assay
T2 sequence (O95398 whole entry): T1 sequence (whole entry)

[6] = molecular target: T1, Rap guanine nucleotide exchange factor 3 (Homo sapiens); experiment: Activation of EPAC1 (unknown origin) expressed in U2OS cells at 100 uM incubated for 10 mins using GST-RalGDS-RBD by Western blot analysis based active GTP-bound Rap1 pull down assay; format: cell-based
[7] = molecular target: T1, Rap guanine nucleotide exchange factor 3 (Homo sapiens); experiment: Activation of EPAC1 in HUVEC assessed as reduction in IL-6-promoted signaling by measuring pERK protein levels at 100 uM pre-incubated for 30 mins before IL6 and sIL6Ralpha stimulation for 5 hrs by Western blotting analysis; format: cell-based
[8] = molecular target: T1, Rap guanine nucleotide exchange factor 3 (Homo sapiens); experiment: Activation of EPAC1 in HUVEC assessed as reduction in IL-6-promoted signaling by measuring VCAM1 protein expression at 100 uM pre-incubated for 30 mins before IL6 and sIL6Ralpha stimulation for 5 hrs by Western blotting analysis; format: cell-based
[9] = molecular target: T1, Rap guanine nucleotide exchange factor 3 (Homo sapiens); experiment: Activation of recombinant EPAC1 (149 to 881 residues) (unknown origin) assessed as stimulation of dissociation of fluorescent MANT-GDP from recombinant Rap1b at 500 uM in presence of excess nonfluorescent nucleotides by fluorescence based in-vitro GEF assay relative to cAMP
[10] = molecular target: T1, Rap guanine nucleotide exchange factor 3 (Homo sapiens); experiment: Activation of recombinant EPAC1 (149 to 881 residues) (unknown origin) assessed as stimulation of dissociation of fluorescent MANT-GDP from recombinant Rap1b at 10 uM in presence of excess nonfluorescent nucleotides by fluorescence based in-vitro GEF assay relative to cAMP
[11] = molecular target: T1, Rap guanine nucleotide exchange factor 3 (Homo sapiens); experiment: Activity at recombinant EPAC1 (149 to 881 residues) (unknown origin) assessed as reduction in cAMP-induced stimulation of dissociation of fluorescent MANT-GDP from recombinant Rap1b at 500 uM in presence of excess nonfluorescent nucleotides by fluorescence based in-vitro GEF assay
[12] = molecular target: T1, Rap guanine nucleotide exchange factor 3 (Homo sapiens); experiment: Activation of EPAC1 in HUVEC assessed as reduction in IL-6-promoted signaling by measuring pAKT protein levels at 100 uM pre-incubated for 30 mins before IL6 and sIL6Ralpha stimulation for 5 hrs by Western blotting analysis; format: cell-based
[13] = Activation of PKA in human U2OS cells stably transfected with EPAC1 assessed as increase in VASP phosphorylation at 100 uM by Western blot analysis; format: cell-based
[14] = molecular target: T1, Rap guanine nucleotide exchange factor 3 (Homo sapiens); experiment: Activation of EPAC1 in HUVEC assessed as reduction in IL-6-promoted signaling by measuring ICAM1 protein expression at 100 uM pre-incubated for 30 mins before IL6 and sIL6Ralpha stimulation for 5 hrs by Western blotting analysis; format: cell-based
[15] = molecular target: T1, Rap guanine nucleotide exchange factor 3 (Homo sapiens); experiment: Activation of EPAC1 (unknown origin) expressed in U2OS cells at 100 uM pre-incubated for 10 mins before 8-pCPT-2'-O-Me-cAMP stimulation for 10 mins using GST-RalGDS-RBD by Western blot analysis based active GTP-bound Rap1 pull down assay; format: cell-based
[16] = molecular target: T2, Rap guanine nucleotide exchange factor 3; experiment: Activation of recombinant EPAC1 (149 to 881 residues) (unknown origin) assessed as stimulation of dissociation of fluorescent MANT-GDP from recombinant Rap1b in presence of excess nonfluorescent nucleotides by fluorescence based in-vitro GEF assay
[17] = molecular target: T1, Rap guanine nucleotide exchange factor 3 (Homo sapiens); experiment: Activation of EPAC1 in HUVEC assessed as reduction in IL-6-promoted signaling by measuring SELE protein expression at 100 uM pre-incubated for 30 mins before IL6 and sIL6Ralpha stimulation for 5 hrs by Western blotting analysis; format: cell-based
[18] = molecular target: T1, Rap guanine nucleotide exchange factor 3 (Homo sapiens); experiment: Activation of recombinant EPAC1 (149 to 881 residues) (unknown origin) assessed as stimulation of dissociation of fluorescent MANT-GDP from recombinant Rap1b up to 100 uM in presence of excess nonfluorescent nucleotides by fluorescence based in-vitro GEF assay relative to cAMP

IC50 [1]	Activity [2]	Activity [3]	Activity [4]	IC50 [5]	Activity [6]	Activity [7]	Activity [8]	Activity [9]	Activity [10]	Activity [11]	Activity [12]	Activity [13]	Activity [14]	Activity [15]	EC50 [16]	Activity [17]	Activity [18]	Compound
6.7 µM	Active	61%	Active	9.2 to 12 µM	Active	inactive	Active											Cc1ccc(S(=O)(=O)NC(=O)COc2ccc3ccccc3c2)c(C)c1
0.6 µM		7%	inactive		Active	inactive	inactive	2%	Active	Active	inactive	Not Active	inactive	Active	5 µM	inactive		COc1ccc2ccc(OCC(=O)NS(=O)(=O)c3ccc(N)cc3OC)cc2c1
	Active	56%	Active	4.6 µM	Active	inactive	Active		Active			Not Active	inactive			inactive		Cc1cc(Nc2ncccc2C(F)(F)F)cc(S(=O)(=O)NC(=O)COc2ccc3ccccc3c2)c1
0.5 µM		14%							Active			Not Active		Active	5 µM		Active	COc1ccc2ccc(OCC(=O)NS(=O)(=O)c3ccc4ccccc4c3)cc2c1
